According to patent publication US11053234B2 (GlaxoSmithKline Intellectual Property Development Limited, priority 2016, dated 2021):

Molecular target: T1, haematopoietic prostaglandin D synthase (H-PGDS) (Homo sapiens, UniProt O60760)
T1 construct: Full length human H-PGDS cDNA (Invitrogen Ultimate ORF 10H13026) was amplified by PCR; 6-His (N); TEV protease cleavage site (N); made in house; host or cells: E. coli BL21 (DE3*), vector pET22b+
Assay: H-PGDS RapidFire high throughput mass spectrometry assay (conversion of PGH2 to PGD2)
Type: biochemical
Settings: 10 nM H-PGDS, PGH2 formed in situ by COX-2 from arachidonic acid; read-out: Potency Range (mean pIC50) (converted)
In short: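 RapidFire SPE–MS read-out calculated percent conversion from relative PGD2 and PGF2α (substrate surrogate) levels. Recombinant full-length human H-PGDS (His-tag, E. coli) turned over PGH2, produced in situ at ˜10 μM by human COX-2 (FLAG-tag, Sf9 cells) acting on arachidonic acid.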

T1 sequence (O60760 whole entry): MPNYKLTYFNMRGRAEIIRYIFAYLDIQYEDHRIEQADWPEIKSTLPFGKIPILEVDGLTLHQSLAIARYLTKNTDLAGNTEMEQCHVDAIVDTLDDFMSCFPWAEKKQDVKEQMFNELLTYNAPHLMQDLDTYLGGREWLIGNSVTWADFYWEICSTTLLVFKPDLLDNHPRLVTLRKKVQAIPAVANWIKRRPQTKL

SMILES | IC50
O=C1Nc2ccccc2C1NC(=O)[C@H]1C[C@H](Oc2cc(F)ccc2OC(F)F)C1 (mixture of isomers) [Example 24, Racemic (trans)-3-(2-(Difluoromethoxy)-5-fluorophenoxy)-N-(2-oxoindolin-3-yl)cyclobutanecarboxamide] | 10 to 79.4 nM
O=C(Nc1nnc(C2CC2)s1)N1CC(Oc2cccc3scnc23)C1 [Example 333, 3-(Benzo[d]thiazol-4-yloxy)-N-(5-cyclopropyl-1,3,4-thiadiazol-2-yl)azetidine-1-carboxamide] | < 10 nM
CS(=O)(=O)c1ccc(NC(=O)[C@H]2C[C@H](Oc3cccc4scnc34)C2)cc1 [Example 242, (trans)-3-(Benzo[d]thiazol-4-yloxy)-N-(4-(methylsulfonyl)phenyl)cyclobutanecarboxamide] | 10 to 79.4 nM
O=C(NC1CCN(c2ccccn2)CC1)N1CC(Oc2cccc3scnc23)C1 [Example 88, 3-(Benzo[d]thiazol-4-yloxy)-N-(1-(pyridin-2-yl)piperidin-4-yl)azetidine-1-carboxamide] | 10 to 79.4 nM
O=C(N[C@H]1CC[C@H](N2CCOC2=O)CC1)N1CC(Oc2cccc3scnc23)C1 [Example 103, 3-(Benzo[d]thiazol-4-yloxy)-N-((trans)-4-(2-oxooxazolidin-3-yl)cyclohexyl)azetidine-1-carboxamide] | 100 to 1000 nM
O=C(NC1CCc2ccccc21)[C@H]1C[C@H](Oc2cccc3cccnc23)C1 (mixture of isomers) [Example 212, Racemic (trans)-N-(2,3-Dihydro-1H-inden-1-yl)-3-(quinolin-8-yloxy)cyclobutanecarboxamide] | 10 to 79.4 nM
O=C(NC1CN(c2ncc(F)cn2)C1)[C@H]1C[C@H](Oc2cc(F)cc3scnc23)C1 [Example 136, (trans)-3-((6-Fluorobenzo[d]thiazol-4-yl)oxy)-N-(1-(5-fluoropyrimidin-2-yl)azetidin-3-yl)cyclobutanecarboxamide] | 10 to 79.4 nM
O=C(N[C@H]1CC[C@H](N2CCCS2(=O)=O)CC1)N1CC(Oc2cccc3scnc23)C1 [Example 101, 3-(Benzo[d]thiazol-4-yloxy)-N-((trans)-4-(1,1-dioxidoisothiazolidin-2-yl)cyclohexyl)azetidine-1-carboxamide] | 10 to 79.4 nM
COc1ccc(F)cc1O[C@H]1C[C@H](C(=O)Nc2nc(C(=O)N(C)C)co2)C1 [Example 158, 2-((trans)-3-(5-Fluoro-2-methoxyphenoxy)cyclobutanecarboxamido)-N,N-dimethyloxazole-4-carboxamide] | 10 to 79.4 nM
COC(=O)c1coc(N2CC(NC(=O)[C@H]3C[C@H](Oc4cccc5scnc45)C3)C2)n1 [Example 45, Methyl 2-(3-((trans)-3-(benzo[d]thiazol-4-yloxy)cyclobutanecarboxamido)azetidin-1-yl)oxazole-4-carboxylate] | 100 to 1000 nM
O=C(NC1CCN(CC(F)(F)F)CC1)N1CC(Oc2cccc3scnc23)C1 [Example 91, 3-(Benzo[d]thiazol-4-yloxy)-N-(1-(2,2,2-trifluoroethyl)piperidin-4-yl)azetidine-1-carboxamide] | 10 to 79.4 nM
O=C(NC12CC(Nc3ncccn3)(C1)C2)[C@H]1C[C@H](Oc2cccc3scnc23)C1 [Example 315, (trans)-3-(Benzo[d]thiazol-4-yloxy)-N-(3-(pyrimidin-2-ylamino)bicyclo[1.1.1]pentan-1-yl)cyclobutane-1-carboxamide] | 10 to 79.4 nM
CC(O)(c1csc(NC(=O)[C@H]2C[C@H](Oc3cccc4cccnc34)C2)n1)C(F)(F)F (mixture of isomers) [Example 187, Racemic (trans)-3-(Quinolin-8-yloxy)-N-(4-(1,1,1-trifluoro-2-hydroxypropan-2-yl)thiazol-2-yl)cyclobutanecarboxamide] | 10 to 79.4 nM
COc1ccc(F)cc1O[C@H]1C[C@H](C(=O)NC2CCN(c3cc(C#N)ccn3)CC2)C1 [Example 155, (trans)-N-(1-(4-Cyanopyridin-2-yl)piperidin-4-yl)-3-(5-fluoro-2-methoxyphenoxy)cyclobutanecarboxamide] | 10 to 79.4 nM
CC(C)(O)[C@H]1CC[C@H](NC(=O)[C@H]2C[C@H](Oc3cc(F)cc(Cl)c3)C2)CC1 [Example 290, (trans)-3-(3-Chloro-5-fluorophenoxy)-N-((trans)-4-(2-hydroxypropan-2-yl)cyclohexyl)cyclobutanecarboxamide] | 100 to 1000 nM
COc1ccc(Cl)cc1O[C@H]1C[C@H](C(=O)Nc2nc(C(C)=O)cs2)C1 [Example 274, (trans)-N-(4-Acetylthiazol-2-yl)-3-(5-chloro-2-methoxyphenoxy)cyclobutanecarboxamide] | < 10 nM
CC(C)(O)[C@H]1CC[C@H](NC(=O)[C@H]2C[C@H](Oc3cc(F)ccc3F)C2)CC1 [Example 229, (trans)-3-(2,5-Difluorophenoxy)-N-((trans)-4-(2-hydroxypropan-2-yl)cyclohexyl)cyclobutanecarboxamide] | 100 to 1000 nM
CC(C)(O)c1cnc(NC(=O)[C@H]2C[C@H](Oc3cccc4cccnc34)C2)s1 [Example 204, (trans)-N-(5-(2-Hydroxypropan-2-yl)thiazol-2-yl)-3-(quinolin-8-yloxy)cyclobutanecarboxamide] | 10 to 79.4 nM
CC(=O)c1csc(NC(=O)[C@H]2C[C@H](Oc3cccc4scnc34)C2)n1 [Example 68, (trans)-N-(4-Acetylthiazol-2-yl)-3-(benzo[d]thiazol-4-yloxy)cyclobutanecarboxamide] | 10 to 79.4 nM
O=C(NC1CN(c2ncccn2)C1)[C@H]1C[C@H](Oc2cc(F)cc3scnc23)C1 [Example 133, (trans)-3-((6-Fluorobenzo[d]thiazol-4-yl)oxy)-N-(1-(pyrimidin-2-yl)azetidin-3-yl)cyclobutanecarboxamide] | 10 to 79.4 nM
CCCCn1nnnc1NC(=O)[C@H]1C[C@H](Oc2cc(F)ccc2OC(F)F)C1 [Example 2, (trans)-N-(1-Butyl-1H-tetrazol-5-yl)-3-(2-(difluoromethoxy)-5-fluorophenoxy)cyclobutanecarboxamide] | 10 to 79.4 nM
COc1ccc(F)cc1O[C@H]1C[C@H](C(=O)NC2CN(c3cc(C#N)ccn3)C2)C1 [Example 149, (trans)-N-(1-(4-Cyanopyridin-2-yl)azetidin-3-yl)-3-(5-fluoro-2-methoxyphenoxy)cyclobutanecarboxamide] | < 10 nM
CC(O)(CO[C@H]1CC[C@H](NC(=O)[C@H]2C[C@H](Oc3cc(F)ccc3OC(F)F)C2)CC1)C1CC1 (mixture of isomers) [Example 11, Racemic (trans)-N-((trans)-4-(2-Cyclopropyl-2-hydroxypropoxy)cyclohexyl)-3-(2-(difluoromethoxy)-5-fluorophenoxy)cyclobutanecarboxamide] | 10 to 79.4 nM
Cc1cccc(NC(=O)[C@H]2C[C@H](Oc3cccc4cccnc34)C2)n1 [Example 181, (trans)-N-(6-Methylpyridin-2-yl)-3-(quinolin-8-yloxy)cyclobutanecarboxamide] | 10 to 79.4 nM
CCc1cccc(O[C@H]2C[C@H](C(=O)N[C@H]3CC[C@H](C(C)(C)O)CC3)C2)c1 [Example 285, (trans)-3-(3-Ethylphenoxy)-N-((trans)-4-(2-hydroxypropan-2-yl)cyclohexyl)cyclobutanecarboxamide] | 100 to 1000 nM
NC(=O)c1cnc(NC(=O)[C@H]2C[C@H](Oc3cccc4cccnc34)C2)s1 [Example 191, 2-((trans)-3-(Quinolin-8-yloxy)cyclobutanecarboxamido)thiazole-5-carboxamide] | 10 to 79.4 nM
